Reference: ChEMBL document CHEMBL1201862, “PubChem BioAssay data set” (2004)
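How tested: cells in 96-well plates exposed to compound for 48 hours at five concentrations. GI50 marks 50% less growth.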 Active and inactive are the calls of the source. No stated cut-off is given here; in the data, active = GI50 up to about 1.1 µM and inactive = higher.

Key:
Experiment in all cases: DTP human tumour cell line panel, 48 h
786-0 = tested on: 786-0
COLO 205 = tested on: COLO 205
HCC 2998 = tested on: HCC 2998
HL-60 = tested on: HL-60
KM12 = tested on: KM12
MOLT-4 = tested on: MOLT-4
NCI-H226 = tested on: NCI-H226
OVCAR-5 = tested on: OVCAR-5
SF-295 = tested on: SF-295
SK-MEL-2 = tested on: SK-MEL-2
SN12C = tested on: SN12C
SNB-19 = tested on: SNB-19
SNB-78 = tested on: SNB-78
SW-620 = tested on: SW-620
U-251 = tested on: U-251
UACC-62 = tested on: UACC-62
BT-549 = tested on: BT-549
CAKI-1 = tested on: CAKI-1
HOP-92 = tested on: HOP-92
NCI/ADR-RES = tested on: NCI/ADR-RES

Measured: GI50

COC(=O)c1c(C(=O)OC)c2cc(C(=O)c3ccccc3)ccn2c1Cl
inactive: 786-0 44.6 µM | COLO 205 35.8 µM | HCC 2998 > 100 µM | HL-60 22.8 µM | KM12 24 µM | MOLT-4 17.7 µM | NCI-H226 22.3 µM | OVCAR-5 48.4 µM | SF-295 26.4 µM | SK-MEL-2 48.4 µM | SN12C 49.8 µM | SNB-19 34 µM | SNB-78 50.9 µM | SW-620 71 µM | U-251 44.2 µM | UACC-62 24.9 µM

Cc1ccc(C2=Nc3c(c(C)nn3-c3ccccc3)N=C(C(=O)O)C2)cc1
inactive: 786-0 > 10 µM | BT-549 > 10 µM | CAKI-1 > 10 µM | COLO 205 > 10 µM | HCC 2998 > 10 µM | HL-60 > 10 µM | HOP-92 > 10 µM | KM12 > 10 µM | MOLT-4 > 10 µM | NCI-H226 > 10 µM | NCI/ADR-RES > 10 µM | OVCAR-5 > 10 µM | SF-295 > 10 µM | SK-MEL-2 > 10 µM | SN12C > 10 µM | SNB-19 > 10 µM | SW-620 > 10 µM | U-251 > 10 µM | UACC-62 > 10 µM

COC(=O)CC(CNC(=O)OCc1ccccc1)OCc1ccc(OC)cc1 (stereo not drawn)
inactive: 786-0 > 100 µM | BT-549 34 µM | CAKI-1 > 100 µM | COLO 205 > 100 µM | HCC 2998 > 100 µM | HL-60 > 100 µM | HOP-92 > 100 µM | KM12 > 100 µM | MOLT-4 > 100 µM | NCI-H226 66.2 µM | NCI/ADR-RES > 100 µM | OVCAR-5 > 100 µM | SF-295 > 100 µM | SK-MEL-2 > 100 µM | SN12C > 100 µM | SNB-19 > 100 µM | SW-620 > 100 µM | U-251 > 100 µM | UACC-62 > 100 µM

CCSc1nc(N2CCOCC2)c2cn[nH]c2n1
inactive: 786-0 > 100 µM | BT-549 82.2 µM | CAKI-1 28.2 µM | COLO 205 39.7 µM | HCC 2998 > 100 µM | HL-60 > 100 µM | HOP-92 48 µM | KM12 58.9 µM | MOLT-4 > 100 µM | NCI-H226 > 100 µM | NCI/ADR-RES > 100 µM | OVCAR-5 77.4 µM | SF-295 54.8 µM | SK-MEL-2 41.5 µM | SN12C 52.5 µM | SNB-19 > 100 µM | SW-620 > 100 µM | U-251 > 100 µM | UACC-62 20.7 µM

O=C(O)CC1NCc2cc3ccccc3nc21 (stereo not drawn)
inactive: 786-0 > 100 µM | BT-549 > 100 µM | CAKI-1 > 100 µM | COLO 205 > 100 µM | HCC 2998 > 100 µM | HL-60 > 100 µM | HOP-92 > 100 µM | KM12 > 100 µM | MOLT-4 > 100 µM | NCI-H226 > 100 µM | NCI/ADR-RES > 100 µM | OVCAR-5 > 100 µM | SF-295 > 100 µM | SK-MEL-2 > 100 µM | SN12C > 100 µM | SNB-19 > 100 µM | SW-620 > 100 µM | U-251 > 100 µM | UACC-62 > 100 µM

O=C(COc1ccccc1)N(C(=O)N1CCN(c2ccccc2)CC1)S(=O)(=O)c1ccccc1
inactive: 786-0 44.2 µM | BT-549 > 100 µM | CAKI-1 > 100 µM | COLO 205 > 100 µM | HCC 2998 > 100 µM | HL-60 83.4 µM | HOP-92 > 100 µM | KM12 > 100 µM | MOLT-4 25.4 µM | NCI-H226 57.4 µM | NCI/ADR-RES 56.8 µM | OVCAR-5 > 100 µM | SF-295 > 100 µM | SK-MEL-2 > 100 µM | SN12C 53 µM | SNB-19 83.2 µM | SW-620 42.5 µM | U-251 30.8 µM | UACC-62 > 100 µM

O=C(CC(NC(=O)C(F)(F)F)C(=O)O)OCc1ccccc1 (stereo not drawn)
inactive: 786-0 > 100 µM | BT-549 > 100 µM | CAKI-1 > 100 µM | COLO 205 > 100 µM | HCC 2998 > 100 µM | HL-60 > 100 µM | HOP-92 > 100 µM | KM12 > 100 µM | MOLT-4 > 100 µM | NCI-H226 > 100 µM | NCI/ADR-RES > 100 µM | OVCAR-5 > 100 µM | SF-295 > 100 µM | SK-MEL-2 > 100 µM | SN12C > 100 µM | SNB-19 > 100 µM | SW-620 > 100 µM | U-251 > 100 µM | UACC-62 > 100 µM

CCOP(=O)(OCC)C(C)(CC)NC1=NC(C(F)(F)F)(C(F)(F)F)NC(=O)N1 (stereo not drawn)
inactive: 786-0 > 100 µM | BT-549 > 100 µM | CAKI-1 > 100 µM | COLO 205 > 100 µM | HCC 2998 > 100 µM | HL-60 > 100 µM | HOP-92 > 100 µM | KM12 > 100 µM | MOLT-4 > 100 µM | NCI-H226 11.3 µM | NCI/ADR-RES > 100 µM | OVCAR-5 > 100 µM | SF-295 > 100 µM | SK-MEL-2 > 100 µM | SN12C > 100 µM | SNB-19 > 100 µM | SW-620 > 100 µM | U-251 > 100 µM | UACC-62 > 100 µM

Cc1cnc2c(C)ccc([N+](=O)[O-])c2c1NCCCN(C)C
inactive: 786-0 > 100 µM | CAKI-1 > 100 µM | COLO 205 > 100 µM | HCC 2998 > 100 µM | HL-60 > 100 µM | KM12 > 100 µM | MOLT-4 > 100 µM | NCI-H226 > 100 µM | OVCAR-5 > 100 µM | SF-295 > 100 µM | SK-MEL-2 > 100 µM | SN12C > 100 µM | SNB-19 > 100 µM | SNB-78 43.7 µM | SW-620 > 100 µM | U-251 > 100 µM

CC(=O)NC1=C(NCCN(C)C)C(=O)c2ccccc2C1=O
inactive: 786-0 18.1 µM | COLO 205 9.95 µM | HCC 2998 14.9 µM | HL-60 9.79 µM | KM12 15.8 µM | MOLT-4 21.9 µM | NCI-H226 > 50 µM | SF-295 15.2 µM | SK-MEL-2 15.3 µM | SN12C 10.4 µM | SNB-19 17.6 µM | SNB-78 18.9 µM | SW-620 16 µM | U-251 10.3 µM | UACC-62 10.5 µM

COC(=O)C1OC(O[C@H]2CC[C@]3(C)[C@H]4CC=C5[C@@H]6CC(C)(C)CC[C@]6(C(=O)OC)CC[C@@]5(C)[C@]4(C)CC[C@H]3C2(C)C)C(O)C(O)C1O (stereo partly drawn)
inactive: 786-0 6.73 µM | BT-549 17.8 µM | CAKI-1 8.85 µM | COLO 205 16.1 µM | HCC 2998 7.76 µM | HL-60 18.1 µM | HOP-92 19.4 µM | KM12 7.52 µM | MOLT-4 11.4 µM | NCI-H226 18.3 µM | NCI/ADR-RES 15.8 µM | OVCAR-5 14.6 µM | SF-295 15.1 µM | SK-MEL-2 17.3 µM | SN12C 13.1 µM | SNB-19 15.2 µM | SW-620 17 µM | U-251 11.4 µM | UACC-62 14.7 µM

CSCCC(N)C(=O)NCCNc1ccc(NCCNC(=O)C(N)CCSC)c2c1C(=O)c1ccccc1C2=O (stereo not drawn)
active: 786-0 0.308 µM | CAKI-1 1.03 µM | HCC 2998 0.716 µM | HL-60 0.746 µM | HOP-92 1.1 µM | MOLT-4 0.123 µM | NCI-H226 1.08 µM | SN12C 0.374 µM | SNB-19 0.927 µM | SW-620 1 µM | U-251 0.6 µM
inactive: BT-549 1.48 µM | COLO 205 1.16 µM | KM12 1.27 µM | NCI/ADR-RES 2.21 µM | OVCAR-5 1.99 µM | SF-295 1.57 µM | SK-MEL-2 3.41 µM | UACC-62 1.23 µM

Cc1cc(N(CCC#N)CCC#N)ccc1/N=N/c1ccc(Br)cc1
inactive: 786-0 13.2 µM | CAKI-1 16.4 µM | COLO 205 > 100 µM | HCC 2998 > 27 µM | HL-60 > 100 µM | KM12 > 23.8 µM | MOLT-4 19.3 µM | NCI-H226 25.1 µM | OVCAR-5 > 100 µM | SF-295 21.4 µM | SK-MEL-2 15.1 µM | SN12C > 36.8 µM | SNB-19 16.1 µM | SNB-78 17.7 µM | SW-620 > 48.6 µM | U-251 19.5 µM | UACC-62 9.31 µM

O=C1/C(=C/c2ccccc2)CN(C(=O)C(F)(F)F)C/C1=C\c1ccccc1
inactive: 786-0 1.68 µM | COLO 205 2.42 µM | KM12 1.54 µM | MOLT-4 3.06 µM | OVCAR-5 3.46 µM | SF-295 1.59 µM | SK-MEL-2 7.98 µM | SN12C 1.7 µM | SNB-19 4.28 µM | SNB-78 2.2 µM | U-251 1.57 µM | UACC-62 1.84 µM
active: HL-60 0.733 µM | SW-620 0.48 µM

O=C(/C=C/c1ccc(/C=C/C(=O)c2ccc(O)cc2)cc1)c1ccc(O)cc1
inactive: 786-0 74 µM | BT-549 > 100 µM | CAKI-1 > 100 µM | COLO 205 > 100 µM | HCC 2998 > 100 µM | HL-60 > 100 µM | HOP-92 > 100 µM | KM12 > 100 µM | MOLT-4 > 100 µM | NCI-H226 > 100 µM | NCI/ADR-RES > 100 µM | OVCAR-5 > 100 µM | SF-295 > 100 µM | SK-MEL-2 > 100 µM | SN12C > 100 µM | SNB-19 > 100 µM | SW-620 > 100 µM | U-251 16.4 µM | UACC-62 > 100 µM
